Laboratory results: ChEMBL document CHEMBL3758137 (Eur J Med Chem, 2016)

Columns and labels:
[1] = Antiproliferative activity against human EBC1 cells after 72 hrs by SRB assay; conditions: EBC-1, 72 h
[2] = molecular target: Hepatocyte growth factor receptor (Homo sapiens, UniProt P08581); experiment: Inhibition of recombinant c-Met (unknown origin) using poly (Glu,Tyr)4:1 as substrate after 60 mins by ELISA
[3] = tested on: Liver microsome; experiment: Intrinsic clearance in human liver microsomes at 0.1 uM after 7 to 60 mins by LC-MS/MS analysis; format: ADME
[4] = Solubility of compound in TRIS buffer by nephelometric analysis in presence of 0.1% BSA; format: physicochemical; conditions: TRIS buffer with 0.1% BSA
[5] = Intrinsic clearance in mouse liver microsomes at 0.1 uM after 7 to 60 mins by LC-MS/MS analysis; format: ADME
[6] = Solubility of compound in HBSS/HEPES buffer at pH 7.4 by nephelometric analysis in presence of 0.1% BSA; format: physicochemical; conditions: HBSS/HEPES buffer with 0.1% BSA
[7] = Solubility of compound in HBSS/HEPES buffer at pH 6.8 by nephelometric analysis in presence of 0.1% BSA; format: physicochemical; conditions: HBSS/HEPES buffer with 0.1% BSA
[8] = Apparent permeability from apical to basolateral side in human Caco2 cells after 35 to 95 mins by LC-MS/MS analysis; format: ADME, cell-based; conditions: Caco-2
[9] = Apparent permeability from basolateral to apical side in human Caco2 cells after 35 to 95 mins by LC-MS/MS analysis; format: ADME, cell-based; conditions: Caco-2
[10] = tested on: Liver microsome; experiment: Intrinsic clearance in rat liver microsomes at 0.1 uM after 7 to 60 mins by LC-MS/MS analysis; format: ADME
[11] = Antitumor activity against human EBC1 cells xenografted in nude mouse assessed as tumor growth inhibition at 50 mg/kg, po qd administered for 21 days relative to control; format: functional; conditions: EBC-1, po, 504 h, read-out: TGI

Chain of Hepatocyte growth factor receptor (P08581 whole entry): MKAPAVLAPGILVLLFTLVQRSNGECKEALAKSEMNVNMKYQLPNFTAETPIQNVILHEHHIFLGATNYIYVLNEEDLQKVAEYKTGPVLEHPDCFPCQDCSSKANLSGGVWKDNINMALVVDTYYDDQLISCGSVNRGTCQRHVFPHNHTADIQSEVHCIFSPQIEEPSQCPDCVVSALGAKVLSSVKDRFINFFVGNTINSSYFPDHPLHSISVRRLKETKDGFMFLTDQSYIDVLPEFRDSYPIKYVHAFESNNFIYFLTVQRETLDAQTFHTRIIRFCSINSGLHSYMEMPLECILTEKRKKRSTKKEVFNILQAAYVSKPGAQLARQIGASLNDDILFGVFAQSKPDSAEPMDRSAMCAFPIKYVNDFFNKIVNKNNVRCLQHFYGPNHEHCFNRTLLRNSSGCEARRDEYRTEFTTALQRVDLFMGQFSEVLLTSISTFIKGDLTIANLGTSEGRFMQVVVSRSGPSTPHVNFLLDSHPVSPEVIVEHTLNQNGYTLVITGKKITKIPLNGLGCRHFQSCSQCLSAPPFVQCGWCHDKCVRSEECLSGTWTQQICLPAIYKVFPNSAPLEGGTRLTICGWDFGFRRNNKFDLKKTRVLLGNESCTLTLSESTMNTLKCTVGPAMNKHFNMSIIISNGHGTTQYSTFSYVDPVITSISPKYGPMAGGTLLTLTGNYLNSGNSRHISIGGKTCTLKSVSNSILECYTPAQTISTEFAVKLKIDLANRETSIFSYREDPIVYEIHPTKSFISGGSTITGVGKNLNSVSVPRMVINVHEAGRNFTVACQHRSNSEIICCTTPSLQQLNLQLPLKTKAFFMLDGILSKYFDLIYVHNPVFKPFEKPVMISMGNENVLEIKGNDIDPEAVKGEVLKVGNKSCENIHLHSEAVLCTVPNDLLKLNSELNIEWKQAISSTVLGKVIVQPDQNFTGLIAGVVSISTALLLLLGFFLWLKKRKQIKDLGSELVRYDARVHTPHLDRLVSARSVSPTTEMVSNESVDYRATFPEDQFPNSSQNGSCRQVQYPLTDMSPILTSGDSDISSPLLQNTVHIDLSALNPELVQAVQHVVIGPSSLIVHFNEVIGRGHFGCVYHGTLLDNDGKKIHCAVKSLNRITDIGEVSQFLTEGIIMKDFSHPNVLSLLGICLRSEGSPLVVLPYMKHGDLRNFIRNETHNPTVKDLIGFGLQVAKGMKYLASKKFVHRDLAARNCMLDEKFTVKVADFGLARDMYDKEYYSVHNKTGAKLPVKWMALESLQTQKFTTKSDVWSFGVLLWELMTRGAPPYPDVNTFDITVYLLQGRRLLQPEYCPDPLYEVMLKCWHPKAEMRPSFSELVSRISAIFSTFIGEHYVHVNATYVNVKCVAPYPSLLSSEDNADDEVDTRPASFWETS

| SMILES | IC50 [1] [nM] | also measured |
| --- | --- | --- |
| CN1CCC(n2cc(-c3cnc(Nc4cccc(Cn5nc(-c6cnn(C)c6)ccc5=O)c4)nc3)cn2)CC1 | 65 | – |
| CC(C)n1cc(-c2cnc(Nc3cccc(Cn4nc(-c5cnn(C)c5)ccc4=O)c3)nc2)cn1 | 94.6 | – |
| Cn1cc(-c2cnc(Nc3cccc(Cn4nc(-c5cccc(C#N)c5)ccc4=O)c3)nc2)cn1 | 108 | – |
| Cn1cc(-c2cnc(Nc3cccc(Cn4nc(-c5ccc(Cl)c(C(F)(F)F)c5)ccc4=O)c3)nc2)cn1 | 65 | – |
| Cn1cc(-c2ccc(Nc3cccc(Cn4nc(-c5cnn(C)c5)ccc4=O)c3)nc2)cn1 | > 200 | IC50 [2]: > 100 nM |
| Cn1cc(-c2ccnc(Nc3cccc(Cn4nc(-c5cnn(C)c5)ccc4=O)c3)n2)cn1 | > 200 | IC50 [2]: > 100 nM |
| CN(C)C(=O)c1ccc(-c2ccc(=O)n(Cc3cccc(Nc4ncc(-c5cnn(C)c5)cn4)c3)n2)cc1F | 102 | – |
| CNC(=O)c1ccc(-c2ccc(=O)n(Cc3cccc(Nc4ncc(-c5cnn(C)c5)cn4)c3)n2)cc1F | 31.3 | CLH [3]: 28 mL/min/g; solubility kinetic [4]: 2 µM; CLH [5]: 50 mL/min/g; solubility kinetic [6]: 2 µM; solubility kinetic [7]: 2 µM; Papp A→B [8]: 1.7 ×10⁻⁶ cm/s; Papp B→A [9]: 17.4 ×10⁻⁶ cm/s; CLH [10]: 64 mL/min/g |
| Cn1cc(-c2cnc(Nc3cccc(Cn4nc(-c5ccc(C(=O)O)c(F)c5)ccc4=O)c3)nc2)cn1 | > 200 | – |
| Cn1cc(-c2cnc(Nc3cccc(Cn4nc(-c5cccnc5)ccc4=O)c3)nc2)cn1 | > 200 | – |
| Cn1cc(-c2ccc(=O)n(Cc3cccc(Nc4ncn(C)n4)c3)n2)cn1 | > 200 | IC50 [2]: > 100 nM |
| Cn1cc(-c2cnc(Nc3cccc(Cn4nc(-c5ccncc5)ccc4=O)c3)nc2)cn1 | > 200 | – |
| Cn1cc(-c2cnc(Nc3cccc(Cn4nc(-c5cccc(S(C)(=O)=O)c5)ccc4=O)c3)nc2)cn1 | > 200 | – |
| Cn1cc(-c2cnc(Nc3cccc(Cn4nc(-c5cccc(C(=O)O)c5)ccc4=O)c3)nc2)cn1 | > 200 | – |
| Cn1cc(-c2cnc(Nc3cccc(Cn4nc(-c5cnn(CCO)c5)ccc4=O)c3)nc2)cn1 | 99.8 | – |
| C[C@@H](Oc1cc(-c2cnn(C3CCNCC3)c2)cnc1N)c1c(Cl)ccc(F)c1Cl [CRIZOTINIB] | 19 | inhibition in vivo at 50 mg/kg [11]: 108% |
| Cn1cc(-c2ccc(=O)n(Cc3cccc(Nc4nc5ccccc5[nH]4)c3)n2)cn1 | > 200 | IC50 [2]: > 100 nM |
| COCCOc1cnc(Nc2cccc(Cn3nc(-c4cnn(C)c4)ccc3=O)c2)nc1 | > 200 | – |
| Cn1cc(-c2cnc(Nc3cccc(Cn4nc(-c5ccc(S(C)(=O)=O)cc5)ccc4=O)c3)nc2)cn1 | 73.4 | – |
| Cn1cc(-c2ccc(=O)n(Cc3cccc(Nc4ncc(-c5cncs5)cn4)c3)n2)cn1 | > 200 | – |
| CN1CCN(Cc2cnc(Nc3cccc(Cn4nc(-c5cnn(C)c5)ccc4=O)c3)nc2)CC1 | > 200 | IC50 [2]: > 100 nM |
| Cn1cc(-c2ccc(=O)n(Cc3cccc(Nc4ncccn4)c3)n2)cn1 | > 200 | IC50 [2]: > 100 nM |
| Cn1cc(-c2ccc(=O)n(Cc3cccc(Nc4ncc(-c5cnn(CCO)c5)cn4)c3)n2)cn1 | 48.7 | – |
| Cn1cc(-c2ccc(=O)n(Cc3cccc(Nc4ncc(-c5cccnc5)cn4)c3)n2)cn1 | > 200 | – |
